pEC50, pKi: −log10 of the molar value. The source made the active and inactive calls. The rule behind the calls is not given here.
Experiments:
[1] = target: T1, 5-hydroxytryptamine receptor 2A (Homo sapiens, UniProt P28223); assay: Agonist activity at human 5-HT2A receptor expressed in HEK293 cells assessed as IP2 production measured after 30 mins incubation by HTRF assay; format: functional, cell-based; details: for EC50: hek293; for pEC50: read-out: EC50
[2] = Lipophilicity, logP of the compound; format: physicochemical; details: octanol/water
[3] = Metabolic stability in Sprague-Dawley rat liver microsomes assessed as deuteration effect measured upto 120 mins by LC-MS/MS analysis; format: ADME, Microsome; details: 2 h
[4] = Metabolic stability of the compound assessed as recombinant human MAO-mediated oxidative metabolism by measuring compound remaining measured upto 120 mins by LC-MS/MS analysis; format: ADME; details: 2 h
[5] = target: T1, 5-hydroxytryptamine receptor 2A; assay: Displacement of [3H]LSD from human 5-HT2A receptor expressed in HEK293 cell membrane incubated for 90 mins by microbeta liquid scintillation counting method; format: cell membranes; details: for pKi: read-out: Ki; for Ki: read-out: pKi (converted)
[6] = target: 5-hydroxytryptamine receptor 2B (Homo sapiens, UniProt P41595); assay: Displacement of [3H]LSD from human 5-HT2B receptor expressed in HEK293 cell membrane incubated for 90 mins by microbeta liquid scintillation counting method; format: cell membranes
[7] = target: T2, 5-hydroxytryptamine receptor 2C (Homo sapiens, UniProt P28335); assay: Displacement of [3H]LSD from human 5-HT2C receptor expressed in HEK293 cell membrane incubated for 90 mins by microbeta liquid scintillation counting method; format: cell membranes
T2 sequence (P28335 whole entry): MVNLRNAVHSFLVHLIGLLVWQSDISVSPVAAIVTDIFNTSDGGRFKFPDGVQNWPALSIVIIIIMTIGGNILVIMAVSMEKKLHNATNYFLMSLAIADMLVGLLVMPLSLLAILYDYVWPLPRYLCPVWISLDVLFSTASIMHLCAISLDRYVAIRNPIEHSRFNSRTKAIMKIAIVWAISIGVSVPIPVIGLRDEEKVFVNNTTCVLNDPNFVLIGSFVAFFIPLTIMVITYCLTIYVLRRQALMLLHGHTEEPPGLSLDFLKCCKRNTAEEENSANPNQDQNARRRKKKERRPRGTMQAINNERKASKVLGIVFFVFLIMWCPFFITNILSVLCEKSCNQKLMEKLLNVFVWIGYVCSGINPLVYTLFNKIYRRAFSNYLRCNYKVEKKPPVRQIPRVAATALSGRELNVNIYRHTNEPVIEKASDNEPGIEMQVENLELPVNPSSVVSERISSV

[8] = tested on: Mus musculus; assay: Psychedelic effect in C57BL/6J mouse assessed as number of head-twitch responses by visual observation at 3 mg/kg, po measured for 3 mins at 5 to 25 min; format: functional; details: 0.05 h
[9] = tested on: Mus musculus; assay: Psychedelic effect in C57BL/6J mouse assessed as number of head-twitch responses by visual observation at 3 mg/kg, po measured for 3 mins at 160 to 170 min; format: functional; details: 0.05 h
[10] = Chemical stability of the compound in buffer solution at pH 1 to 6.8 measured for 5 days; format: physicochemical; details: pH 1, 120 h, time 5 day
[11] = Chemical stability of the compound in water measured for 5 days; format: physicochemical; details: buffer, 120 h; time 5 day
[12] = target: T1, 5-hydroxytryptamine receptor 2A; assay: Agonist activity at human 5-HT2A receptor expressed in HEK293 cells assessed as maximal IP2 production measured after 30 mins incubation by HTRF assay relative to control; format: functional, cell-based; details: filed as agonist
[13] = tested on: Mus musculus; assay: Psychedelic effect in C57BL/6J mouse assessed as number of head-twitch responses by visual observation at 3 to 30 mg/kg, po; format: functional, organism-based; details: dose 3-30 mg/kg

T1 sequence (P28223 whole entry): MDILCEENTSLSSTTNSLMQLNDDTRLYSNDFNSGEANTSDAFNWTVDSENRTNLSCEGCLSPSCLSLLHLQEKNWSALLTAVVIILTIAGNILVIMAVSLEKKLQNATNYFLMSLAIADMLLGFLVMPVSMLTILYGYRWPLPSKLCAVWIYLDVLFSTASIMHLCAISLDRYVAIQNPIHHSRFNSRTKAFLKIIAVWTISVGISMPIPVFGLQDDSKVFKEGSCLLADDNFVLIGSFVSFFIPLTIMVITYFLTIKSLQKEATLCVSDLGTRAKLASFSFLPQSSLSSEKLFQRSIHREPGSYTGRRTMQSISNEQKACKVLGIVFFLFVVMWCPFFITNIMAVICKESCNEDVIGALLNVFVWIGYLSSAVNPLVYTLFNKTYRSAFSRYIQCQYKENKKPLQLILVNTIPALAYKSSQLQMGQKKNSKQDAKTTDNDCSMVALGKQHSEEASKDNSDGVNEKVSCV
5-hydroxytryptamine receptor 2B, sequence (P41595 whole entry): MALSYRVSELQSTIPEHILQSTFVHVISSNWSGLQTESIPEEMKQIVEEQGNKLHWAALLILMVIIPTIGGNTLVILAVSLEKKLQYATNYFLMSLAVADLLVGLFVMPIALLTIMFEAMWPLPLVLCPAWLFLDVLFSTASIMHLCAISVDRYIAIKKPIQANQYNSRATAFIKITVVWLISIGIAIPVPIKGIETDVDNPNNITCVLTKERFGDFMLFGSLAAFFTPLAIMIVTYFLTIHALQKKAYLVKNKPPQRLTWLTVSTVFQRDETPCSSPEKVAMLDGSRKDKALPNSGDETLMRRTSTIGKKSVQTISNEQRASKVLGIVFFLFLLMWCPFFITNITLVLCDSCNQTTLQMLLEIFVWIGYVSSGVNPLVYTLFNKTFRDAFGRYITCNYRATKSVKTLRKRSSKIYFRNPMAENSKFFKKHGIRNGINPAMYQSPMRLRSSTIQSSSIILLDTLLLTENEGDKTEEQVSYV

COc1cc(P(C)(C)=O)c(OC)cc1CCN.Cl
EC50 [1]: Not Active
logP [2]: -1.67

COc1cc(N(C(C)C)C(C)C)c(OC)cc1CCN.Cl.Cl
EC50 [1]: Not Active
logP [2]: 2.7

Cl.[2H]C([2H])([2H])Oc1cc(SC)c(OC([2H])([2H])[2H])cc1C[C@@H](C)N
Stability [3]: Stable
Stability [4]: Stable

COc1cc([S+]([O-])C(F)F)c(OC)cc1CCN.Cl (configuration not stated)
pKi [5]: 7.57
pKi [6]: 7.59
pKi [7]: 7.09
Activity [8]: 3
Activity [9]: 4

Cl.[2H]C([2H])([2H])Oc1cc(C2CCCC2)c(OC([2H])([2H])[2H])cc1CCN
Stability [3]: Stable
Stability [4]: Stable

COc1cc(OCCC(F)F)c(OC)cc1CCN
pKi [5]: 6.41

COc1cc(SC(F)(F)F)c(OC)cc1CCN.Cl
Activity [8]: 21
Activity [9]: 30
Stability [10]: Stable
Stability [11]: Stable

COc1cc(SCCC(F)(F)F)c(OC)cc1CCN.Cl
pKi [5]: 8.00
pKi [6]: 8.26
pKi [7]: 7.96
Activity [8]: 3.3
Activity [9]: 6.1

COc1cc(SCC#N)c(OC)cc1CCN
pKi [5]: 7.44
pEC50 [1]: 8.21
Emax [12]: 77%

COc1cc(SCCCCF)c(OC)cc1CCN
pKi [5]: 7.33

C#CCCCSc1cc(OC)c(CCN)cc1OC
pKi [5]: 8.64
pEC50 [1]: 8.74
Emax [12]: 78%

COc1cc(SSC(C)(C)C)c(OC)cc1CCN.Cl
pKi [5]: 7.23
pKi [6]: 8.00
pKi [7]: 7.59
Activity [8]: 0.6
Activity [9]: 4.8

Cl.[2H]C([2H])([2H])Oc1cc(C(F)(F)F)c(OC([2H])([2H])[2H])cc1CCN
Stability [3]: Stable
Stability [4]: Stable

COc1cc(SC(F)(F)F)c(OC)cc1CCNCC1CC1
pKi [5]: 8.05
pEC50 [1]: 7.32
Emax [12]: 63%
Activity [13]: inactive

COc1cc(SCCCF)c(OC)cc1CCN
pKi [6]: 8.21
pKi [7]: 8.16
Activity [8]: 7.4
Activity [9]: 4.7

COc1cc(SCCC(F)F)c(OC)cc1CCN.Cl
pKi [5]: 7.64
pKi [6]: 8.17
pKi [7]: 8.05
Activity [8]: 5
Activity [9]: 2.6

COc1cc(C(C)=O)c(OC)cc1CCN.Cl
EC50 [1]: Not Active
logP [2]: 0.42

COc1cc(C2CCCC2)c(OC)cc1CCN
pKi [5]: 6.87

COc1cc(S(=O)(=O)C(F)(F)F)c(OC)cc1CCN.Cl
pKi [5]: 8.72
pKi [6]: 8.08
pKi [7]: 7.89
Activity [8]: 26
Activity [9]: 28

COc1cc(SC(C)(C)C)c(OC)cc1CCN
pEC50 [1]: 6.82
Activity [13]: inactive

C#CCSc1cc(OC)c(CCN)cc1OC
pEC50 [1]: 9.17
Emax [12]: 100%

COc1cc(CCN)cc(OC)c1SC(F)(F)F
pKi [5]: 7.35
pEC50 [1]: 7.39
Emax [12]: 96%

Cl.[2H]C([2H])(N)Cc1cc(OC)c(SC)cc1OC
Stability [3]: Stable
Stability [4]: Stable

COc1cc([S+]([O-])C(F)(F)F)c(OC)cc1CCN.Cl (configuration not stated)
pKi [5]: 7.72
pKi [6]: 8.19
pKi [7]: 7.68
Activity [8]: 17
Activity [9]: 18

Cl.[2H]C([2H])([2H])Oc1cc(C(C)(C)C)c(OC([2H])([2H])[2H])cc1CCN
Stability [3]: Stable
Stability [4]: Stable

COc1cc(C(=O)C(C)(C)C)c(OC)cc1CCN
pEC50 [1]: 6.07
logP [2]: 2.34

COc1cc(SCC(F)(F)C(F)F)c(OC)cc1CCN.Cl
pKi [5]: 7.47
Ki [5]: 38 nM
pKi [6]: 8.35
pKi [7]: 7.96
Activity [8]: 3.1
Activity [9]: 5.6

COc1cc(SCC(F)F)c(OC)cc1CCN
pKi [5]: 6.84

COc1cc(OCCC(F)(F)F)c(OC)cc1CCN
pKi [5]: 6.32

COc1cc(C[C@H](C)N)c(O)cc1SC.Cl
Stability [3]: Stable
Stability [4]: Stable

Cl.[2H]C([2H])(N)Cc1cc(OC)c(C(F)(F)F)cc1OC
Stability [3]: Stable
Stability [4]: Stable

Cl.[2H]C([2H])([2H])Oc1cc(SC)c(OC([2H])([2H])[2H])cc1C[C@H](C)N
Stability [3]: Stable
Stability [4]: Stable

COc1cc(S(=O)(=O)C(C)(C)C)c(OC)cc1CCN
pEC50 [1]: 6.28

COc1cc(SSC(F)(F)F)c(OC)cc1CCN.Cl
pKi [5]: 7.11
pKi [6]: 7.18
pKi [7]: 7.17
Activity [8]: 1.8
Activity [9]: 3.4

Cl.[2H]C([2H])([2H])C(c1cc(OC)c(CCN)cc1OC)(C([2H])([2H])[2H])C([2H])([2H])[2H]
Stability [3]: Stable
Stability [4]: Stable

COc1cc(SC(F)(F)F)c(OC)cc1CC(C)N (configuration not stated)
pEC50 [1]: 8.27
Emax [12]: 91%

COc1cc(S(=O)(=O)CF)c(OC)cc1CCN.Cl
pKi [5]: 8.23
Ki [5]: 6.03 nM
pKi [6]: 7.55
pKi [7]: 7.59
Activity [8]: 1.7
Activity [9]: 2.3

Cl.[2H]C([2H])([2H])Oc1cc(SC)c(OC([2H])([2H])[2H])cc1CCN
Stability [3]: Stable
Stability [4]: Stable

COc1cc(SC(F)F)c(OC)cc1CCN.Cl
Ki [5]: 6.46 nM
pKi [6]: 7.62
pKi [7]: 7.80
Activity [8]: 33
Activity [9]: 17

COc1cc(S(=O)(=O)C(F)F)c(OC)cc1CCN.Cl
pKi [5]: 7.96
pKi [6]: 7.70
pKi [7]: 7.08
Activity [8]: 5
Activity [9]: 1.7

COc1cc(SC)c(OC)cc1C[C@@H](C)N.Cl
Stability [3]: Stable
Stability [4]: Stable

COc1cc(OCCCF)c(OC)cc1CCN
pKi [5]: 5.79
Ki [5]: 1700 nM

Reference: ChEMBL document CHEMBL5543140 (J Med Chem, 2024)
